Results from ChEMBL document CHEMBL1152144, “In situ blood-brain barrier permeability of a C-10 paclitaxel carbamate” (Bioorg Med Chem Lett, 2008).

Tested on: Brain
Assay: Blood-brain barrier permeability in B6C3 mouse brain assessed as increase in drug level at 0.1 uCi, iv relative to [14C]paclitaxel
Format: ADME, organism-based
Conditions: in vivo

Row | Compound | fold change (FC)
1 | CC(=O)O[C@@]12CO[C@@H]1C[C@H](O)[C@@]1(C)C(=O)[C@H](OC(=O)CCC(=O)O)C3=C(C)[C@@H](OC(=O)[C@H](O)[C@@H](NC(=O)c4ccccc4)c4ccccc4)C[C@@](O)([C@@H](OC(=O)c4ccccc4)[C@H]21)C3(C)C | 6
2 | CC(=O)O[C@@]12CO[C@@H]1C[C@H](O)[C@@]1(C)C(=O)[C@H](OC(=O)N[14CH2][14CH2]O)C3=C(C)[C@@H](OC(=O)[C@H](O)[C@@H](NC(=O)c4ccccc4)c4ccccc4)C[C@@](O)([C@@H](OC(=O)c4ccccc4)[C@H]21)C3(C)C | 3
